Assay results as given in patent US11154482B2, “Peptide, composition and method for anti-hair graying” (Renorigin Innovation Institute Co., Ltd., priority 2020, dated 2021).

Experiments:
[1] = system: B16F10 murine melanoma cells; test: Protection against hydrogen peroxide-induced oxidative stress injury (MTT cell viability assay); format: cell-based; settings: 30 μM hydrogen peroxide for 24 h, then 50 μg/ml peptide and hydrogen peroxide for 48 h
Description: (§1) B16F10 murine melanoma cells (American Type Culture Collection, Manassas, Va., USA) were cultured in Dulbecco's modified Eagle's medium (DMEM) (Thermo Scientific, Barrington, Ill., USA) with 10% fetal bovine serum (FBS) (Gibco, Grand Island, N.Y., USA) and penicillin/streptomycin (100 IU/[…]) in a humidified atmosphere containing 5% CO2 at 37° C.
(§2) Cells (1×10^3) were seeded in 96-well plates. After treatment with hydrogen peroxide and peptide of SEQ ID NO: 1, MTT was added to a final concentration of 0.5 mg/ml and incubated for 4 h at 37° C. to allow MTT reduction. The formazan crystals were then dissolved in 10% sodium dodecyl sulfate (SDS) containing 0.01 N HCl and absorbance was measured at the dual wavelengths of 570 and 630 nm with a spectrophotometer (VersaMax; Molecular Devices, Silicon Valley, Calif., USA).
Cells were exposed to 30 μM hydrogen peroxide for 24 h and then treated with 50 μg/ml peptide of SEQ ID NO: 1 and hydrogen peroxide for 48 h.

[2] = system: B16F10 murine melanoma cells; test: Prevention of hydrogen peroxide-induced oxidative stress injury (MTT cell viability assay); format: cell-based; settings: 50 μg/ml peptide for 24 h, then 0.5 mM hydrogen peroxide for 2 h
Description: as §1, §2
Cells were treated with 50 μg/ml peptide of SEQ ID NO: 1 for 24 h and then exposed to 0.5 mM hydrogen peroxide for 2 h.

Bleaching of hair = settings: 7.5% hydrogen peroxide, 400 μg/ml peptide, 14 days
Description: FIG. 4 provides photographs of the hairs decolored with 7.5% hydrogen peroxide. Top panel, 7.5% hydrogen peroxide only; bottom panel, 7.5% hydrogen peroxide and incubated with 400 μg/ml peptide of the invention.
Hairs were treated with 7.5% hydrogen peroxide with or without peptide of SEQ ID NO: 1 for 14 days.

DPPH assay = format: physicochemical; settings: 50 μg/ml peptide, 0.2 mM DPPH, 16 h in the dark at room temperature, absorbance 515 nm
Description: 50 μg/ml peptide of SEQ ID NO: 1 was treated with 0.2 mM DPPH for 16 h. Data are represented as the means±SD from three independent experiments. ***p<0.001.
50 μg/ml peptide of SEQ ID NO: 1 was added in 96-well plates and incubated with 0.2 mM DPPH. Plates incubated in the dark for 16 hours at room temperature. After 16 h, the absorbance was measured at 515 nm using an automated plat reader (molecular devices).

FKCRRWQWRMKKL [Peptide of SEQ ID NO: 1]
hydrogen peroxide-induced stress injury (MTT assay), protection [1]: attenuates hydrogen peroxide-induced stress injury
hydrogen peroxide-induced stress injury (MTT assay), prevention [2]: attenuates hydrogen peroxide-induced stress injury
hair color after hydrogen peroxide immersion (Bleaching of hair): hair still had bright yellow
DPPH radical scavenging capacity (DPPH assay): significantly decreased DPPH radical scavenging capacity
